Bounds are passed on as bounds.

The subject of the first assay is GM3. Description: GM3 Elisa assay. In kind it is cell-based. The following applies: 48 h, Table 2; B16-FO cells, 2 days incubation; read-out: IC50_uM_Mean. The method, then:
B16-FO cells from ATCC (American Tissue Culture Collection) were grown in DMEM media (ATCC) with 10% Fetal Bovine Serum (Hyclone) and Pen/Step/Glutamine (Biowhittaker). 4000 cells per well were plated on collagen coated plates (BD) and allowed to attach for 6 hours in an incubator (37 degrees, 5% CO2). After 6 hours the compounds and controls were added to the wells, the plates mixed and returned to the incubator for 2 days. Day of assay the cells were fixed for 20 minutes with 1% formaldehyde and then washed with Tris Buffered Saline (TBS) 3 times, 150 μl of TBS was left in the wells and 50 μl of goat serum (Invitrogen) was added, the plates mixed and incubated for 1 hour at room temperature. The plates were flicked and the cells incubated with the monoclonal Antibody to GM3 (NeuAc) (Cosmo) for 45 minutes as room temperature. The plates were then washed 3 times with TBS, leaving 150 μl of TBS in the wells and Peroxidase AffinPure F (ab′) 2 frag Gt Anti-mouse IgM, μ Chain Specific (Jackson Immno Research) was added in 50 μl, the plates mixed and incubated for 45 minutes at room temperature. The plates were washed 3 times with TBS, flicked and blotted and 100 μl of Quantablu (Pierce) was added to the wells and incubated for 1 hour then read on a Fluorometer at Ex 325 and Em 420. The data was then analyzed using standard programs.
Consider `Cc1ccc(C(=O)CCC(=O)N[C@H](CC2CCCC2)[C@H](O)c2ccc3c(c2)CCCC3)cc1` [Compound 264], for which the IC50 is at most 100 nM.

As for `COC(=O)CO[C@H](c1ccc2c(c1)OCO2)[C@@H](CN1CCCC1)NC(=O)CCOc1ccc(OC)cc1` [Compound 275], the IC50 is at most 100 nM.

Still in this assay, the particulars now being: 48 h, Table 3; B16-FO cells, 2 days incubation; read-out: IC50_uM_Mean.
Regarding `COc1ccc(OCCC(=O)N[C@H](CN2CCC[C@@H]2C)[C@H](O)c2ccc3c(c2)OCCO3)cc1` [Compound 526], the IC50 fell in the range of 100 to 1000 nM.

Take `CCCCCCCCCCCCCCCC(=O)N[C@H](CN(C)Cc1ccccc1)[C@@H](O)c1ccc2c(c1)OCCO2` [Compound 682]: the IC50 was in the range of 3000 to 10000 nM.

For `O=C(CCCCS(=O)(=O)C12CC3CCCC(C1)C(C3)C2)N[C@H](CN1CCCC1)[C@@H](O)c1ccc2c(c1)OCCO2` (stereo partly shown) [Compound 560], the IC50 lay in the range of 100 to 1000 nM.

With `COc1ccc(OCCC(=O)NC(CN2[C@H](C)CC[C@H]2C)[C@H](O)c2ccc3c(c2)OCCO3)cc1` (stereo partly shown) [Compound 550], the IC50 was 3000 to 10000 nM.

In the case of `COc1ccc(OCCC(=O)N[C@@H](CN2CCCC2)[C@@H](O)c2ccc3c(c2)OCCO3)cc1` [Compound 674], the IC50 lay within 3000 to 10000 nM.

With `COc1ccc(C(=O)CCCCC(=O)NC(CN2CCCC2)[C@H](O)c2ccc(OCCC3CCCCC3)cc2)cc1` (stereo partly shown) [Compound 419], the IC50 was at most 100 nM.

Turning to `COc1ccc(C(=O)CCCCCC(=O)N[C@H](CN2CCC[C@@H]2C)[C@H](O)c2ccc3c(c2)OCCO3)cc1` [Compound 525], the IC50 is at most 100 nM.

On to `COc1ccc([C@@H](O)[C@@H](CN2CCCC2)NC(=O)CCCCCC(C)=O)cc1` [Compound 664], for which the IC50 fell in the range of 1000 to 3000 nM.

Consider `COc1ccc(OCCC(=O)N[C@H](CN2C(C)CCCC2C)[C@@H](O)c2ccc3c(c2)OCCO3)cc1` (stereo partly shown) [Compound 598], for which the IC50 lay within 3000 to 10000 nM.

Take `CCCNC[C@@H](NC(=O)CCCCCC(=O)c1ccc(OC)cc1)[C@H](O)c1ccc2c(c1)OCCO2` [Compound 467]: the IC50 is 100 to 1000 nM.

With `COc1ccc(OCCC(=O)N[C@H](CN2CCCC2)[C@@H](O)c2ccc3c(c2)OCCO3)cc1` [Compound 676], the IC50 was in the range of 3000 to 10000 nM.

In the case of `N#CCCCCCC(=O)C[C@H](CN1CCCC1)[C@H](O)c1ccc2c(c1)OCCO2` [Compound 632], the IC50 lay within 3000 to 10000 nM.

Regarding `COC[C@H]1CCCN1C[C@@H](NC(=O)CCOc1ccc(OC)cc1)[C@H](O)c1ccc2c(c1)OCCO2` [Compound 538], the IC50 was 3000 to 10000 nM.

As for `CCCCOc1ccc([C@@H](O)[C@@H](CN2CC[C@@H](F)C2)NC(=O)CCCCCCCOC)cc1` [Compound 584], the IC50 was 100 to 1000 nM.

For `Cc1nccn1C[C@@H](NC(=O)CCCCCC(=O)c1ccc(F)cc1)[C@H](O)c1ccc2c(c1)OCCO2` [Compound 569], the IC50 lay within 3000 to 10000 nM.

Take `COCOc1ccc(C(=O)CCCC(=O)N[C@H](CN2CC[C@H](O)C2)[C@H](O)c2ccc(OC(C)C)cc2)cc1` [Compound 737]: the IC50 was in the range of 100 to 1000 nM.

On to `COCCOc1ccc(C(O)[C@@H](CN2CCCC2)NC(=O)CCCCC(=O)c2ccc(OC)cc2)cc1` (stereo partly shown) [Compound 417], for which the IC50 is at most 100 nM.

Take `COc1ccc(OCCC(=O)N[C@@H](CN2CCCC2)[C@H](O)c2ccc3c(c2)OCCO3)cc1` [Compound 675]: the IC50 lay within 3000 to 10000 nM.

For `COc1ccc(C(=O)CCCCCC(=O)N[C@H](CN2CCC[C@H]2C)[C@H](O)c2ccc3c(c2)OCCO3)cc1` [Compound 529], the IC50 is at most 100 nM.

With `CCCCCCCC(=O)N[C@H](CN1CCC[C@@H]1C)[C@H](O)c1ccc2c(c1)OCCO2` [Compound 527], the IC50 fell in the range of 1000 to 3000 nM.

For the compound `O=C(CCCCOCC(F)(F)F)N[C@H](CN1CCCC1)[C@H](O)c1ccc(CCc2ccccc2)cc1` [Compound 647], the IC50 lay in the range of 100 to 1000 nM.

For the compound `COC[C@@H]1CCCN1CC(NC(=O)CCCCCC(=O)c1ccc(OC)cc1)[C@@H](O)c1ccc2c(c1)OCCO2` (stereo partly shown) [Compound 533], the IC50 lay within 100 to 1000 nM.

`COc1ccc(C(=O)CCCCCC(=O)N[C@H](CNC(C)C)[C@@H](O)c2ccc3c(c2)OCCO3)cc1` [Compound 465]: the IC50 lay in the range of 100 to 1000 nM.

Take `COc1ccc(OCCC(=O)N[C@H](CN2CCC[C@H]2C)[C@H](O)c2ccc3c(c2)OCCO3)cc1` [Compound 528]: the IC50 was 1000 to 3000 nM.

As to `CCCCCCCC(=O)N[C@H](CN1CCC(C)(C)C1)[C@@H](O)c1ccc2c(c1)OCCO2` [Compound 521], the IC50 was 3000 to 10000 nM.

With `COc1ccc(C(=O)CCCCCC(=O)N[C@H](CN2CCC(C)(C)C2)[C@@H](O)c2ccc3c(c2)OCCO3)cc1` [Compound 520], the IC50 fell in the range of 1000 to 3000 nM.

As to `CCCCCCCC(=O)NC(CN1[C@H](C)CC[C@H]1C)[C@H](O)c1ccc2c(c1)OCCO2` (stereo partly shown) [Compound 549], the IC50 was in the range of 3000 to 10000 nM.

On to `COc1ccc(CCCCN(C(=O)CCCCC(=O)c2ccc(OC)cc2)[C@H](CN2CCCC2)[C@H](O)c2ccc(O)cc2)cc1` [Compound 429], for which the IC50 lay within 3000 to 10000 nM.

In the case of `O=C(CCCCCC1CCOCC1)N[C@H](CN1CC[C@@H](F)C1)[C@H](O)c1cccc(OCc2ccccc2)c1` [Compound 574], the IC50 fell in the range of 100 to 1000 nM.

Turning to `COc1ccc(C(=O)CCCCCC(=O)N[C@H](CN2CC[C@@H](O)C2)[C@@H](O)c2ccc3c(c2)OCCO3)cc1` [Compound 518], the IC50 was 100 to 1000 nM.

`COc1ccc(C(=O)CCCCCC(=O)NC(CN2[C@H](C)CC[C@H]2C)[C@H](O)c2ccc3c(c2)OCCO3)cc1` (stereo partly shown) [Compound 548]: the IC50 lay in the range of 1000 to 3000 nM.

Take `Cc1noc(CCCCC(=O)N[C@@H](CC2CCCC2)[C@H](O)c2ccc3c(c2)OCCO3)n1` [Compound 652]: the IC50 was in the range of 3000 to 10000 nM.

Turning to `CCCCOc1ccc([C@@H](O)[C@@H](CN2CC[C@@H](O)C2)NC(=O)CCCCCOCCF)cc1` [Compound 661], the IC50 fell in the range of 1000 to 3000 nM.

The same assay, now with this note: 48 h; Table 1; B16-FO cells, 2 days incubation; read-out: IC50_uM_Mean.
As to `COc1ccc(OCCC(=O)N[C@H](CN2CCCC2)[C@H](O)c2ccc3c(c2)OCCO3)cc1` [Compound 61, N-((1R,2R)-1-(2,3-dihydrobenzo[β][1,4]dioxin-6-yl)-1-hydroxy-3-(pyrrolidin-1-yl)propan-2-yl)-3-(4-methoxyphenoxy)propanamide], the IC50 is at most 100 nM.

Staying with this assay, now noted: Table 1; B16-FO cells, 2 days incubation; read-out: IC50_uM_Mean.
`CC(=O)CCc1ccc(OCCC(=O)N[C@H](CN2CCCC2)[C@H](O)c2ccc3c(c2)OCCO3)cc1` [Compound 193, N-((1R,2R)-1-(2,3-dihydrobenzo[b][1,4]dioxin-6-yl)-1-hydroxy-3-(pyrrolidin-1-yl)propan-2-yl)-3-(4-(3-oxobutyl)phenoxy)propanamide(2R,3R)-2,3-dihydroxysuccinate]: the IC50 is 100 to 1000 nM.

The record behind these values is patent publication US8729075B2, “Glucosylceramide synthase inhibition for the treatment of collapsing glomerulopathy and other glomerular disease” (Genzyme Corporation, priority 2008, dated 2014).
